In US20230276831A1, “Food/Beverage Article” (Kikkoman Corporation, priority 2020, published 2023) one finds activity and Antimicrobial activity data, which are given here for seven compounds.

For experiment [1], the system named is Lactobacillus fructivores (NBRC 13954). Kind of experiment: Antimicrobial action of oxygen-containing heterocyclic compounds in soy sauce (Test Example 7). The class given is cell-based. The conditions noted are these: NBRC13954, 168 h, salt 4% (w/v), alcohol 5% (v/v); for activity at 0.1 ppm: test substance 0.1 ppm; for activity at 0.5 ppm: test substance 0.5 ppm; for activity at 1 ppm: test substance 1 ppm; for activity at 5 ppm: test substance 5 ppm; for activity at 25 ppm: test substance 25 ppm; for activity at 50 ppm: test substance 50 ppm. The procedure:
(§1) Commercially available whole soybean soy sauce (produced by Kikkoman Corporation) was electrodialyzed and then concentrated under reduced pressure to produce soy sauce at a salt concentration of 0% (w/v) and an alcohol concentration of 0% (v/v). Then, salt and/or alcohol was added to the above-mentioned obtained soy sauce, and the mixture was then heat-treated to produce soy sauce at a salt concentration of 4% (w/v) and an alcohol concentration of 5% (v/v).
The test substance described in Table 21 was added to the soy sauce produced in Test Example 6 to concentrations of 0.1 ppm, 0.5 ppm, 1 ppm, 5 ppm, 25 ppm, and 50 ppm. Lactic acid bacteria (Lactobacillus fructivores (NBRC 13954)) were then added to 10^4 to 10^5 cells/mL and cultured at 30° C. for 7 days. After the culture, the number of lactic acid bacteria was measured using Difco Lactobacilli MRS Agar. Soy sauce to which the test substance was not added was used as a control group, and the antimicrobial activity was evaluated in comparison with the number of lactic acid bacteria in the control group. The evaluation was performed using the following criterion.
• A: The bacterial count decreases to less than 10% of the bacterial count of a control group. • B: The bacterial count decreases to 10% or more and less than 50% of the bacterial count of the control group. • C: The bacterial count decreases to 50% or more and less than 100% of the bacterial count of the control group. • D: The bacterial count is the same as the bacterial count of the control group.

In experiment [2] the test system is Lactobacillus rennini (DSM 20253). Kind of experiment: Antimicrobial action of oxygen-containing heterocyclic compounds in soy sauce (Test Example 6). The experiment is classed as cell-based. More on the design: key to Antimicrobial activity: A: The bacterial count decreases to less than 10% of the bacterial count of the control group.; B: The bacterial count decreases to 10% or more and less than 50% of the bacterial count of the control group.; C: The bacterial count decreases to 50% or more and less than 100% of the bacterial count of control group.; D: The bacterial count is the same as the bacterial count of the control group. The settings on record: salt 4% (w/v), alcohol 5% (v/v); for activity at 5 ppm / activity at 10 ppm / activity at 25 ppm / activity at 50 ppm / activity at 100 ppm / activity at 1 ppm: Loigolactobacillus rennini, DSM20253, 168 h; for activity at 5 ppm: test substance 5 ppm; for activity at 10 ppm: test substance 10 ppm; for activity at 25 ppm: test substance 25 ppm; for activity at 50 ppm: test substance 50 ppm; for activity at 100 ppm: test substance 100 ppm; for Antimicrobial activity / activity at 1 ppm: test substance 1 ppm. The procedure:
as §1
The test substance described in Table 20 was added to the above-mentioned produced soy sauce to concentrations of 1 to 100 ppm. Lactic acid bacteria (Lactobacillus rennini (DSM 20253)) were then added to 10^6 to 10^7 cells/mL and cultured at 30° C. for 7 days. After the culture, the number of lactic acid bacteria was measured using the GAM agar medium “Nissui”. Soy sauce to which licoricidin was not added was used as a control group, and the antimicrobial activity was evaluated in comparison with the number of lactic acid bacteria in the control group. The evaluation was performed using the criterion shown below.
• A: The bacterial count decreases to less than 10% of the bacterial count of the control group. • B: The bacterial count decreases to 10% or more and less than 50% of the bacterial count of control group. • C: The bacterial count decreases to 50% or more and less than 100% of the bacterial count of the control group. • D: The bacterial count is the same as the bacterial count of the control group. • -: Not evaluated

Take `COc1cc2oc(=O)c(-c3ccc(O)cc3O)cc2c(OC)c1CC=C(C)C` [Glycyrin, 3-(2,4-dihydroxyphenyl)-5,7-dimethoxy-6-(3-methyl-2-butenyl)-2H-1-benzopyran-2-one]: in experiment [1], the activity at 0.1 ppm was in the range of 10 to 50%, the activity at 0.5 ppm was in the range of 10 to 50%, the activity at 1 ppm was in the range of 10 to 50% and the activity at 5 ppm fell in the range of 10 to 50%. In experiment [1], the activity at 25 ppm lay within 10 to 50% and the activity at 50 ppm fell in the range of 10 to 50%. In experiment [2], the activity at 5 ppm was 10 to 50%, the activity at 10 ppm is 10 to 50%, the activity at 25 ppm is less than 10% and the activity at 50 ppm was less than 10%. In experiment [2], the activity at 100 ppm was less than 10% and the Antimicrobial activity result is reported as “D”.

Take `C=CC(C)(C)c1c(O)cc(OC)c2cc(-c3ccc(O)cc3O)c(=O)oc12` [Licoarylcoumarin, 3-(2,4-dihydroxyphenyl)-7-hydroxy-5-methoxy-8-(2-methyl-3-butene-2-yl)coumarin]: in experiment [1], the activity at 0.1 ppm is 10 to 50%, the activity at 0.5 ppm lay within 10 to 50%, the activity at 1 ppm lay in the range of 10 to 50% and the activity at 5 ppm fell in the range of 50 to 100%. Besides, in experiment [1], the activity at 25 ppm is 10 to 50% and the activity at 50 ppm lay within 10 to 50%. Also, in experiment [2], the activity at 5 ppm is 50 to 100%, the activity at 10 ppm lay in the range of 50 to 100%, the activity at 25 ppm was in the range of 10 to 50% and the activity at 50 ppm fell in the range of 10 to 50%. Further, in experiment [2], the activity at 100 ppm was less than 10% and the Antimicrobial activity entry is “D”.

Consider `COc1c(CC=C(C)C)c(O)cc2oc(=O)c(-c3ccc(O)cc3O)cc12` [Glycycoumarin, 3-(2,4-dihydroxyphenyl)-7-hydroxy-5-methoxy-6-(3-methyl-2-butenyl)-2H-1-benzopyran-2-one], for which, in experiment [1], the activity at 0.1 ppm lay within 10 to 50%, the activity at 0.5 ppm was 10 to 50%, the activity at 1 ppm fell in the range of 10 to 50% and the activity at 5 ppm lay within 10 to 50%. For the same compound, in experiment [1], the activity at 25 ppm was less than 10% and the activity at 50 ppm was less than 10%. Further, in experiment [2], the activity at 5 ppm was in the range of 10 to 50%, the activity at 10 ppm fell in the range of 10 to 50%, the activity at 25 ppm was less than 10% and the activity at 50 ppm is less than 10%. Moreover, in experiment [2], the activity at 100 ppm was less than 10% and the Antimicrobial activity result was “D”.

On to `CC(C)=CCc1cc(-c2coc3cc(O)c(CC=C(C)C)c(O)c3c2=O)cc(O)c1O` [Isoangustone A, 3-[3,4-dihydroxy-5-(3-methyl-2-butenyl)phenyl]-5,7-dihydroxy-6-(3-methyl-2-butenyl)-4H-chromen-4-one], for which, in experiment [1], the activity at 0.1 ppm was in the range of 10 to 50%, the activity at 0.5 ppm was 10 to 50%, the activity at 1 ppm is 50 to 100% and the activity at 5 ppm lay within 10 to 50%. Further, in experiment [1], the activity at 25 ppm is less than 10% and the activity at 50 ppm was less than 10%. In experiment [2], the activity at 1 ppm lay within 10 to 50%, the activity at 5 ppm was less than 10%, the activity at 10 ppm is less than 10% and the activity at 25 ppm is less than 10%. Also, in experiment [2], the activity at 50 ppm is less than 10% and the activity at 100 ppm was less than 10%.

Consider `COc1c(CC=C(C)C)c(O)cc2c1C[C@H](c1ccc(O)cc1O)CO2` [Glyasperin C, (3R)-3β(2,4-dihydroxyphenyl)-5-methoxy-6-(3-methyl-2-butenyl)-3,4-dihydro-2H-1-benzopyran-7-ol], for which, in experiment [1], the activity at 0.1 ppm lay in the range of 10 to 50%, the activity at 0.5 ppm was 10 to 50%, the activity at 1 ppm fell in the range of 10 to 50% and the activity at 5 ppm is 10 to 50%. In experiment [1], the activity at 25 ppm was in the range of 10 to 50% and the activity at 50 ppm was less than 10%. Also, in experiment [2], the activity at 1 ppm was in the range of 10 to 50%, the activity at 5 ppm is 10 to 50%, the activity at 10 ppm fell in the range of 10 to 50% and the activity at 25 ppm is less than 10%. Moreover, in experiment [2], the activity at 50 ppm was less than 10% and the activity at 100 ppm was less than 10%.

In the case of `COc1cc2oc(-c3ccc(O)cc3O)cc2c(OC)c1CC=C(C)C` [Gancaonin I, 5-(3-methyl-2-butenyl)-2-(2,4-dihydroxyphenyl)-4,6-dimethoxybenzofuran], in experiment [1], the activity at 0.1 ppm is 10 to 50%, the activity at 0.5 ppm lay in the range of 50 to 100%, the activity at 1 ppm lay in the range of 10 to 50% and the activity at 5 ppm is 50 to 100%. Also, in experiment [1], the activity at 25 ppm was 10 to 50% and the activity at 50 ppm is less than 10%. In experiment [2], the activity at 1 ppm fell in the range of 50 to 100%, the activity at 5 ppm was less than 10%, the activity at 10 ppm is less than 10% and the activity at 25 ppm is less than 10%. In addition, in experiment [2], the activity at 50 ppm is less than 10% and the activity at 100 ppm is less than 10%.

In the case of `CC(C)=CCc1c(O)c(CC=C(C)C)c2occ(-c3ccc(O)cc3)c(=O)c2c1O` [8-(γ,γ-dimethylallyl)-wighteone, 6,8-bis(3-methyl-2-butenyl)-3-(4-hydroxyphenyl)-5,7-dihydroxy-4H-1-benzopyran-4-one], in experiment [1], the activity at 0.1 ppm lay within 10 to 50%, the activity at 0.5 ppm lay in the range of 10 to 50%, the activity at 1 ppm was in the range of 10 to 50% and the activity at 5 ppm is less than 10%. In addition, in experiment [1], the activity at 25 ppm is less than 10% and the activity at 50 ppm was less than 10%. In experiment [2], the activity at 1 ppm lay in the range of 50 to 100%, the activity at 5 ppm was less than 10%, the activity at 10 ppm is less than 10% and the activity at 25 ppm was less than 10%. Besides, in experiment [2], the activity at 50 ppm was less than 10% and the activity at 100 ppm is less than 10%.
